Here are results for 6 molecules from patent EP0113880A2, “Derivatives from 2-azabicyclo(2.2.1)heptane, process for their preparation, agents containing them and their use, and 2-azabicyclo(2.2.1)heptane derivatives as intermediates, and process for their preparation” (HOECHST AKTIENGESELLSCHAFT, priority 1982, dated 1984).

In general, ED50 refers to the dose that gives a 50% effect, or the effect in half of the subjects.

Structures can show the parent of a compound that is named as a salt. Where two headings read alike, the source gives them in different places.

For this experiment, the system named is durch 310 ng Angiotensin I ausgelösten Pressorreaktion. The experiment is described as follows: Inhibition of the angiotensin I induced pressor response after intraduodenal administration to the anaesthetised rat. Type of experiment: in vivo, Ratte. The note with it: dose giving 50 % inhibition of the pressor response to 310 ng angiotensin I, 30 min after application. The protocol:
Intraduodenale Gabe an der narkotisierten Ratte, 50 % Hemmung der durch 310 ng Angiotensin I ausgelösten Pressorreaktion 30 min. nach Applikation in der Dosis .............- ED50: […]

Molecule `CCOC(=O)[C@H](CC(=O)c1ccccc1)N[C@@H](C)C(=O)N1C2CCC(C2)[C@H]1C(=O)O` (stereo partly drawn) [N-(1-S-Carbethoxy-3-oxo-3-phenyl-propyl)-S-alanyl-2-azabicyclo [2.2.1] heptan-3-S-exo-carbonsäure] registered a 50% effective dose (ED50) of 0.9 mg/kg.

Turning to `CCOC(=O)[C@H](CC(=O)c1ccccc1)N[C@@H](C)C(=O)N1[C@H]2CC[C@H](C2)[C@H]1C(=O)O` [N-(1-S-Carbethoxy-3-phenyl-3-oxo-propyl)-S-alanyl-2-azabicyclo [2.2.1] heptan-3-S-endo-carbonsäure. Hydrochlorid], the ED50 (0.5 h, read-out: ED50) worked out at 0.75 mg/kg.

Under “30 min”, `C[C@H](N[C@@H](CCc1ccccc1)C(=O)O)C(=O)N1C2CCC(C2)[C@H]1C(=O)O` (stereo partly drawn) [n=1, X=C6H5, Y=H, Z=H, R^1=H, R^2=CH3, R=H, exo] [N-(1-S-Carboxy-3-phenyl-propyl)-S-alanyl-2-azabicyclo [2.2.1 J heptan-3-S-exo-carbonsäure] came in with a median effective dose (ED50) of 1.8 mg/kg.

As to “N-(1-S-Carbethoxy-3-phenyl-propyl)-S-alanyl-2-azabicyclo [2.2.1 ] heptan-3-S-exo-carbonsäure Hydrochlorid”, the ED50 came to 0.7 mg/kg.

For the molecule `C[C@H](N[C@@H](CCc1ccccc1)C(=O)O)C(=O)N1C2CCC(C2)[C@H]1C(=O)O` (stereo partly drawn) [n=1, X=C6H5, Y=H, Z=H, R^1=H, R^2=CH3, R=H, endo] [N-(1-S-Carboxy-3-phenyl-propyl)-S-alanyl-2-azabicyclo , [2.2.1] heptan-3-S-endo-carbonsäure], the ED50 (30 min) was 1.6 mg/kg.

Turning to “N-(1-S-Carbethoxy-3-phenyl-propyl)-S-alanyl-2-azabicyclo [ 2.2.1] heptan-3-S-endo-carbonsäure-Hydrochlorid”, the median effective dose (ED50) amounted to 0.5 mg/kg.
